pEC50, pKi: −log10 of the molar value.
What was measured:
[1] = tested on: MDA-MB-231; experiment: Effective concentration of compound with DFMO tested in vitro for ability to inhibit polyamine transport and growth of MDA-MB-231 breast carcinoma cell line; assay type: functional, cell-based; conditions: Homo sapiens
[2] = Inhibition of SPD uptake by polyamine transporter of MDA-MB-231 breast carcinoma cells; assay type: cell-based
[3] = tested on: MDA-MB-231; experiment: Michaelis-Menten constant of compound was determined at MDA-MB-231 cell line mediated by polyamine transporter; assay type: cell-based; conditions: Homo sapiens
[4] = tested on: MDA-MB-231; experiment: Effective concentration of compound with DFMO tested in vitro for ability to inhibit polyamine transport and growth of MDA-MB-231 breast carcinoma cell line; Cytotoxic; assay type: functional, cell-based; conditions: Homo sapiens
[5] = tested on: MDA-MB-231; experiment: Effective concentration of compound without DFMO tested in vitro for ability to inhibit polyamine transport and growth of MDA-MB-231 breast carcinoma cell line; Cytotoxic; assay type: functional, cell-based; conditions: Homo sapiens

Row | SMILES | pEC50 [1] | pKi [2] | Km [3] [µM] | pEC50 [4] | pEC50 [5]
1 | CC(=O)NCCCNCCCCNCCCN | < 3.00 | 6.74 | – | – | –
2 | NCCCNCCCCNCCCNC(=O)CCCCCC(=O)NCCCNCCCCNCCCN | 5.22 | 7.40 | – | – | –
3 | NCCCCNCCCN | – | – | 0.11 | – | –
4 | NCCCNCCCCNCCCN | – | – | 2 | – | –
5 | NCCCNCCCCNCCCNC(=O)CCC(=O)NCCCNCCCCNCCCN | 5.70 | 7.52 | – | – | –
6 | CCCCCCC(=O)NCCCNCCCCNCCCN | – | 6.55 | – | 4.20 | –
7 | NCCCNCCCCNCCCNC(=O)CCCCCCCCC(=O)NCCCNCCCCNCCCN | 5.05 | 7.10 | – | – | 3.62
8 | NCCCNCCCCNCCCNC(=O)CCCCC(=O)NCCCNCCCCNCCCN | 5.66 | 7.15 | – | – | –
9 | NCCCCN | – | – | 1.28 | – | –
10 | NCCCNCCCCNCCCNC(=O)CCCC(=O)NCCCNCCCCNCCCN | 5.80 | 7.22 | – | – | –
11 | NCCCNCCCCNCCCNC(=O)CCCCCCCC(=O)NCCCNCCCCNCCCN | 5.52 | 7.15 | – | – | –
12 | NCCCNCCCCNCCCNS(=O)(=O)c1ccc2cc(S(=O)(=O)NCCCNCCCCNCCCN)ccc2c1 | 3.64 | 7.22 | – | – | –
13 | NCCCNCCCCNCCCNC(=O)CC12CC3CC(C1)CC(CC(=O)NCCCNCCCCNCCCN)(C3)C2 | < 3.52 | 7.22 | – | – | –
14 | NCCCNCCCCNCCCNC(=O)CCCCCCCCCCC(=O)NCCCNCCCCNCCCN | 5.10 | 7.52 | – | – | 4.28
15 | NCCCNCCCCNCCCNC(=O)CCCCCCC(=O)NCCCNCCCCNCCCN | 5.43 | 7.22 | – | – | –

From ChEMBL document CHEMBL1136018, “Synthesis of bis-spermine dimers that are potent polyamine transport inhibitors” (Bioorg Med Chem Lett, 2002)
